Data published in US12202835B2, “Substituted aromatic ring-linked dioxinoquinazolines and dioxinoquinolines as kinase inhibitors” (BEIJING SCITECH-MQ PHARMACEUTICALS LIMITED, priority 2018, dated 2025).

Key:
[1] = target: MER kinase (Homo sapiens (Human), UniProt Q12866); experiment: Assay of small molecular compounds for inhibiting the activity of MER kinase (LANCE TR-FRET); assay type: biochemical
Procedure, shortened: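 LANCE TR-FRET readout of ULight-poly GT phosphorylation by MER kinase; compound final range 0.042-2500 nM, 3-fold steps, 5 min enzyme preincubation. Reaction 60 min at room temperature in the dark with substrate/ATP (4× at 200 nM/20 μM), 1% DMSO, then stopped and developed 60 min; IC50 by curve fit.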

[2] = target: VEGFR-2 kinase (Homo sapiens (Human), UniProt P35968); experiment: Assay of small molecular compounds for inhibiting the activity of VEGFR-2 kinase (LANCE TR-FRET); assay type: biochemical; details: read-out: VEGFR2 IC50
Procedure, shortened: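 LANCE TR-FRET with human VEGFR-2 (2× stock 0.5 nM) preincubated 30 min with compound (final 2500 to 0.042 nM, 11-point 3-fold), then ULight-JAK-1 (Tyr1023) peptide/ATP added (4× stocks 200 nM/40 μM). Reaction 60 min room temperature, 4% DMSO; IC50 from inhibition-rate curve.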

[3] = test system: Ba/F3 LMNA-NTRK1 cells; experiment: Assay for inhibiting the proliferation of Ba/F3 LMNA-NTRK1 cells (CCK-8); assay type: cell-based; details: Mus musculus, BaF3
Procedure, shortened: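 Viability was read as absorbance at 450 nm following 1–2 h CCK-8 incubation at 37 °C, relative to control and blank wells.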

Sequence of VEGFR-2 kinase (P35968 20-1356): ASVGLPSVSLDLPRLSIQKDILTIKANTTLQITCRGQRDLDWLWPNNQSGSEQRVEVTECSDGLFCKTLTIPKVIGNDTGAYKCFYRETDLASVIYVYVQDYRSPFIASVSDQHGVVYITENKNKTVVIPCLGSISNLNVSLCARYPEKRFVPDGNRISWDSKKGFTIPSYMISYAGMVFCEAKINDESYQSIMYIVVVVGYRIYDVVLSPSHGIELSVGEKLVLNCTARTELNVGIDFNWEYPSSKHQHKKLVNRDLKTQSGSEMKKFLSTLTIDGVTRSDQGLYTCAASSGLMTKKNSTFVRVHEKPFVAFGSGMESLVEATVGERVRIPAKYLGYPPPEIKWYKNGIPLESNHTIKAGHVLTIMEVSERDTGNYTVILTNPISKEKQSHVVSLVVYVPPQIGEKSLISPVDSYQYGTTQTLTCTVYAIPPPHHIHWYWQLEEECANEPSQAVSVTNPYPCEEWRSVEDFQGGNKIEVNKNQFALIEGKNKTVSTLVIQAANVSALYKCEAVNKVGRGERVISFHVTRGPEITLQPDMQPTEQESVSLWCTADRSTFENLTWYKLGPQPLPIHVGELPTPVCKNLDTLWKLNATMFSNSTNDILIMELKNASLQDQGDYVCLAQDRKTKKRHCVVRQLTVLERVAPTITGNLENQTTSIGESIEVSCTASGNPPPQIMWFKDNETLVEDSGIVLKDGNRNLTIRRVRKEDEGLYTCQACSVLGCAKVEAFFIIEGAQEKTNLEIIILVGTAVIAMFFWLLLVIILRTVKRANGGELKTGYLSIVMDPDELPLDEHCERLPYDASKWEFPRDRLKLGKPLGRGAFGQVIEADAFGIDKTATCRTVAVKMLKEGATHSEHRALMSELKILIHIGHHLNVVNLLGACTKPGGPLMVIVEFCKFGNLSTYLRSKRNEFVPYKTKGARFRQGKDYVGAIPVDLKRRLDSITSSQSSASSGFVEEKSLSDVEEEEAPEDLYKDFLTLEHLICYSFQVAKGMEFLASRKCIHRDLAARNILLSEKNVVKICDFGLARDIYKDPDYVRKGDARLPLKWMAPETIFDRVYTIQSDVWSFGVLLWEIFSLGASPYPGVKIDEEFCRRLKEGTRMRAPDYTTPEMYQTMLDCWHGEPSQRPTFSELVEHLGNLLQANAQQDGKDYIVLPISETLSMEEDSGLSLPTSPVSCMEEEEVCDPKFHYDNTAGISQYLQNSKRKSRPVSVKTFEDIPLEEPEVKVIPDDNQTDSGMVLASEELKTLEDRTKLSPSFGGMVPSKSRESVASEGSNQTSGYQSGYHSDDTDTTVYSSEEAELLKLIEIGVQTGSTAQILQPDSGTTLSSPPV
Sequence of MER kinase (Q12866 21-999): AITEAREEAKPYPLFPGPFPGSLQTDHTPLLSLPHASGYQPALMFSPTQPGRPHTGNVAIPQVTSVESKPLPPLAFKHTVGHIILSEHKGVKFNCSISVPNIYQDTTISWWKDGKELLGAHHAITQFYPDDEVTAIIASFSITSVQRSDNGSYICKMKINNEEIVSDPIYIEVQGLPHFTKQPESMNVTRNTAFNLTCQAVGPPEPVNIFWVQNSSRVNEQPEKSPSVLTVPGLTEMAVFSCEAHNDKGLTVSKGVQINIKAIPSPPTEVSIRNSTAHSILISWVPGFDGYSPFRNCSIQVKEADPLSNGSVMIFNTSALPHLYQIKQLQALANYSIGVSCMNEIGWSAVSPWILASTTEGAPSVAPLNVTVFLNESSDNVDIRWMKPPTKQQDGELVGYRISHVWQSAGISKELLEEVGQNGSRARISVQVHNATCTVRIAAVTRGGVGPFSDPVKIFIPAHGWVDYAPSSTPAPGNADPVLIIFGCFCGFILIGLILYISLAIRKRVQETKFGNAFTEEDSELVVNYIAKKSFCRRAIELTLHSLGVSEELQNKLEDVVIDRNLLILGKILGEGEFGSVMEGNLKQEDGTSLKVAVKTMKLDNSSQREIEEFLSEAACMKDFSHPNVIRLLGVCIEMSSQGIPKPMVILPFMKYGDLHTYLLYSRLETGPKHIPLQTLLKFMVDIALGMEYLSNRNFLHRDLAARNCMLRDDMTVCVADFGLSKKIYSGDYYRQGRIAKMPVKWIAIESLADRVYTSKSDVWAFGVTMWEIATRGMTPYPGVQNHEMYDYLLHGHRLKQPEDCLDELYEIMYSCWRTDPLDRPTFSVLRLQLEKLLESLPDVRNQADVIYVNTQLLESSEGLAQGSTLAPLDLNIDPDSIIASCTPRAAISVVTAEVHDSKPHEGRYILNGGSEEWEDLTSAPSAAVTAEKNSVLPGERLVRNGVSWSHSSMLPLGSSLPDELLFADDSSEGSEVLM

Row | Compound | IC50 [1] [nM] | IC50 [2] [nM] | IC50 [3] [nM]
1 | CCOc1ccn(-c2ccc(F)cc2)c(=O)c1C(=O)Nc1ccc(Oc2ccnc3cc(OCCCO)c4c(c23)OCCO4)c(F)c1 [Example 54, N-(4-((5-(3-hydroxypropoxy)-2,3-dihydro-[1,4]dioxino[2,3-f]quinolin-10-yl)oxy)-3-fluorophenyl)-4-ethoxy-1-(4-fluorophenyl)-2-oxo-1,2-dihydropyridine-3-carboxamide] | ≤ 50 | ≤ 50 | < 50
2 | CCOc1ccn(-c2ccc(F)cc2)c(=O)c1C(=O)Nc1ccc(Oc2ccnc3cc(OCCCOC)c4c(c23)OCCO4)c(F)c1 [Example 55, N-(4-((5-(3-methoxypropoxy)-2,3-dihydro-[1,4]dioxino[2,3-f]quinolin-10-yl)oxy)-3-fluorophenyl)-4-ethoxy-1-(4-fluorophenyl)-2-oxo-1,2-dihydropyridine-3-carboxamide] | ≤ 50 | 50 to 500 | < 50
3 | CCOc1ccn(-c2ccc(F)cc2)c(=O)c1C(=O)Nc1ccc(Oc2ccnc3cc(OCC#N)c4c(c23)OCCO4)c(F)c1 [Example 56, N-(4-((5-(cyanomethoxy)-2,3-dihydro-[1,4]dioxino[2,3-f]quinolin-10-yl)oxy)-3-fluorophenyl)-4-ethoxy-1-(4-fluorophenyl)-2-oxo-1,2-dihydropyridine-3-carboxamide] | ≤ 50 | 50 to 500 | < 50
4 | CCOc1ccn(-c2ccc(F)cc2)c(=O)c1C(=O)Nc1ccc(Oc2ccnc3cc(OCCCC#N)c4c(c23)OCCO4)c(F)c1 [Example 57, N-(4-((5-(3-cyanopropoxy)-2,3-dihydro-[1,4]dioxino[2,3-f]quinolin-10-yl)oxy)-3-fluorophenyl)-4-ethoxy-1-(4-fluorophenyl)-2-oxo-1,2-dihydropyridine-3-carboxamide] | ≤ 50 | ≤ 50 | < 50
5 | CCOc1cc2nccc(Oc3ccc(NC(=O)c4c(OCC)ccn(-c5ccc(F)cc5)c4=O)cc3F)c2c2c1OCCO2 [Example 62, N-(4-((5-ethoxy-2,3-dihydro-[1,4]dioxino[2,3-f]quinolin-10-yl)oxy)-3-fluorophenyl)-4-ethoxy-1-(4-fluorophenyl)-2-oxo-1,2-dihydropyridine-3-carboxamide] | ≤ 50 | ≤ 50 | < 50
6 | CCOc1ccn(-c2ccc(F)cc2)c(=O)c1C(=O)Nc1ccc(Oc2ccnc3cc(OC4COC4)c4c(c23)OCCO4)c(F)c1 [Example 64, N-(4-((5-((oxetan-3-yl)oxy)-2,3-dihydro-[1,4]dioxino[2,3-f]quinolin-10-yl)oxy)-3-fluorophenyl)-4-ethoxy-1-(4-fluorophenyl)-2-oxo-1,2-dihydropyridine-3-carboxamide] | ≤ 50 | 50 to 500 | 50 to 200
7 | CCOc1ccn(-c2ccc(F)cc2)c(=O)c1C(=O)Nc1ccc(Oc2ccnc3cc(OC4CCOC4)c4c(c23)OCCO4)c(F)c1 (stereo not drawn) [Example 65, N-(4-((5-((tetrahydrofuran-3-yl)oxy)-2,3-dihydro-[1,4]dioxino[2,3-f]quinolin-10-yl)oxy)-3-fluorophenyl)-4-ethoxy-1-(4-fluorophenyl)-2-oxo-1,2-dihydropyridine-3-carboxamide] | ≤ 50 | 50 to 500 | 50 to 200
8 | CCOc1ccn(-c2ccc(F)cc2)c(=O)c1C(=O)Nc1ccc(Oc2ccnc3cc(OC4CCOCC4)c4c(c23)OCCO4)c(F)c1 [Example 66, N-(4-((5-((tetrahydropyran-4-yl)oxy)-2,3-dihydro-[1,4]dioxino[2,3-f]quinolin-10-yl)oxy)-3-fluorophenyl)-4-ethoxy-1-(4-fluorophenyl)-2-oxo-1,2-dihydropyridine-3-carboxamide] | ≤ 50 | 50 to 500 | 50 to 200
9 | CCOc1ccn(-c2ccc(F)cc2)c(=O)c1C(=O)Nc1ccc(Oc2ccnc3cc(OCCCN4CCC(C)(C)CC4)c4c(c23)OCCO4)c(F)c1 [Example 67, N-(4-((5-(3-(4,4-dimethylpiperidin-1-yl)propoxy)-2,3-dihydro-[1,4]dioxino[2,3-f]quinolin-10-yl)oxy)-3-fluorophenyl)-4-ethoxy-1-(4-fluorophenyl)-2-oxo-1,2-dihydropyridine-3-carboxamide] | ≤ 50 | ≤ 50 | < 50
10 | CCOc1ccn(-c2ccc(F)cc2)c(=O)c1C(=O)Nc1ccc(Oc2ccnc3cc(OCCCN4CCC(C)(N)CC4)c4c(c23)OCCO4)c(F)c1 [Example 68, N-(4-((5-(3-(4-amino-4-methylpiperidin-1-yl)propoxy)-2,3-dihydro-[1,4]dioxino[2,3-f]quinolin-10-yl)oxy)-3-fluorophenyl)-4-ethoxy-1-(4-fluorophenyl)-2-oxo-1,2-dihydropyridine-3-carboxamide] | ≤ 50 | ≤ 50 | 200 to 1000
11 | CCOc1ccn(-c2ccc(F)cc2)c(=O)c1C(=O)Nc1ccc(Oc2ccnc3cc(OCCCN4CCC(C)(O)CC4)c4c(c23)OCCO4)c(F)c1 [Example 69, N-(4-((5-(3-(4-hydroxy-4-methylpiperidin-1-yl)propoxy)-2,3-dihydro-[1,4]dioxino[2,3-f]quinolin-10-yl)oxy)-3-fluorophenyl)-4-ethoxy-1-(4-fluorophenyl)-2-oxo-1,2-dihydropyridine-3-carboxamide] | ≤ 50 | ≤ 50 | < 50
12 | CCOc1ccn(-c2ccc(F)cc2)c(=O)c1C(=O)Nc1ccc(Oc2ccnc3cc(OCCCN(C)CCOC)c4c(c23)OCCO4)c(F)c1 [Example 70, N-(4-((5-(3-((2-methoxyethyl)(methyl)amino)propoxy)-2,3-dihydro-[1,4]dioxino[2,3-f]quinolin-10-yl)oxy)-3-fluorophenyl)-4-ethoxy-1-(4-fluorophenyl)-2-oxo-1,2-dihydropyridine-3-carboxamide] | ≤ 50 | ≤ 50 | < 50
13 | CCOc1ccn(-c2ccc(F)cc2)c(=O)c1C(=O)Nc1ccc(Oc2ccnc3cc(OCCCN(C)C4CCC4)c4c(c23)OCCO4)c(F)c1 [Example 71, N-(4-((5-(3-(cyclobutyl(methyl)amino)propoxy)-2,3-dihydro-[1,4]dioxino[2,3-f]quinolin-10-yl)oxy)-3-fluorophenyl)-4-ethoxy-1-(4-fluorophenyl)-2-oxo-1,2-dihydropyridine-3-carboxamide] | ≤ 50 | ≤ 50 | < 50
14 | CCOc1ccn(-c2ccc(F)cc2)c(=O)c1C(=O)Nc1ccc(Oc2ccnc3cc(OCCCN4CCOCC4)c4c(c23)OCCO4)c(Cl)c1 [Example 72, N-(4-((5-(3-morpholinopropoxy)-2,3-dihydro-[1,4]dioxino[2,3-f]quinolin-10-yl)oxy)-3-chlorophenyl)-4-ethoxy-1-(4-fluorophenyl)-2-oxo-1,2-dihydropyridine-3-carboxamide] | ≤ 50 | ≤ 50 | < 50
15 | CCOc1ccn(-c2ccc(F)cc2)c(=O)c1C(=O)Nc1ccc(Oc2ccnc3cc(OCCCN4CCOCC4)c4c(c23)OCCO4)cc1Cl [Example 73, N-(2-chloro-4-((5-(3-morpholinopropoxy)-2,3-dihydro-[1,4]dioxino[2,3-f]quinolin-10-yl)oxy)phenyl)-4-ethoxy-1-(4-fluorophenyl)-2-oxo-1,2-dihydropyridine-3-carboxamide] | ≤ 50 | 50 to 500 | < 50
16 | CN1CCN(CCCOc2cc3nccc(Oc4ccc(NC(=O)c5cn(C)c(=O)n(-c6ccc(F)cc6)c5=O)cc4F)c3c3c2OCCO3)CC1 [Example 74, N-(3-fluoro-4-((5-(3-(4-methylpiperazin-1-yl)propoxy)-2,3-dihydro-[1,4]dioxino[2,3-f]quinolin-10-yl)oxy)phenyl)-3-(4-fluorophenyl)-1-methyl-2,4-dioxo-1,2,3,4-tetrahydropyrimidine-5-carboxamide] | ≤ 50 | ≤ 50 | < 50
17 | CC(C)n1cc(C(=O)Nc2ccc(Oc3ccnc4cc(OCCCN5CCS(=O)(=O)CC5)c5c(c34)OCCO5)c(F)c2)c(=O)n(-c2ccc(F)cc2)c1=O [Example 76, N-(3-fluoro-4-((5-(3-(1,1-dioxidothiomorpholino)propoxy)-2,3-dihydro-[1,4]dioxino[2,3-f]quinolin-10-yl)oxy)phenyl)-3-(4-fluorophenyl)-1-isopropyl-2,4-dioxo-1,2,3,4-tetrahydropyrimidine-5-carboxamide] | ≤ 50 | 500 to 5000 | < 50
18 | CC(C)n1cc(C(=O)Nc2ccc(Oc3ccnc4cc(OCCCN5CCCC5)c5c(c34)OCCO5)c(F)c2)c(=O)n(-c2ccc(F)cc2)c1=O [Example 77, N-(3-fluoro-4-((5-(3-(pyrrolidin-1-yl)propoxy)-2,3-dihydro-[1,4]dioxino[2,3-f]quinolin-10-yl)oxy)phenyl)-3-(4-fluorophenyl)-1-isopropyl-2,4-dioxo-1,2,3,4-tetrahydropyrimidine-5-carboxamide] | ≤ 50 | 50 to 500 | < 50
19 | CC(C)n1cc(C(=O)Nc2ccc(Oc3ccnc4cc(OCCO)c5c(c34)OCCO5)c(F)c2)c(=O)n(-c2ccc(F)cc2)c1=O [Example 78, N-(3-fluoro-4-((5-(2-hydroxyethoxy)-2,3-dihydro-[1,4]dioxino[2,3-f]quinolin-10-yl)oxy)phenyl)-3-(4-fluorophenyl)-1-isopropyl-2,4-dioxo-1,2,3,4-tetrahydropyrimidine-5-carboxamide] | ≤ 50 | 500 to 5000 | < 50
